Molecular target: T1, human kinase Mps-1 (Homo sapiens, UniProt P33981)
T1 construct: N-terminally GST-tagged human full length recombinant Mps-1 kinase; GST (N); purchased Invitrogen, Karslruhe, Germany PV4071
T1 sequence (P33981 1-857): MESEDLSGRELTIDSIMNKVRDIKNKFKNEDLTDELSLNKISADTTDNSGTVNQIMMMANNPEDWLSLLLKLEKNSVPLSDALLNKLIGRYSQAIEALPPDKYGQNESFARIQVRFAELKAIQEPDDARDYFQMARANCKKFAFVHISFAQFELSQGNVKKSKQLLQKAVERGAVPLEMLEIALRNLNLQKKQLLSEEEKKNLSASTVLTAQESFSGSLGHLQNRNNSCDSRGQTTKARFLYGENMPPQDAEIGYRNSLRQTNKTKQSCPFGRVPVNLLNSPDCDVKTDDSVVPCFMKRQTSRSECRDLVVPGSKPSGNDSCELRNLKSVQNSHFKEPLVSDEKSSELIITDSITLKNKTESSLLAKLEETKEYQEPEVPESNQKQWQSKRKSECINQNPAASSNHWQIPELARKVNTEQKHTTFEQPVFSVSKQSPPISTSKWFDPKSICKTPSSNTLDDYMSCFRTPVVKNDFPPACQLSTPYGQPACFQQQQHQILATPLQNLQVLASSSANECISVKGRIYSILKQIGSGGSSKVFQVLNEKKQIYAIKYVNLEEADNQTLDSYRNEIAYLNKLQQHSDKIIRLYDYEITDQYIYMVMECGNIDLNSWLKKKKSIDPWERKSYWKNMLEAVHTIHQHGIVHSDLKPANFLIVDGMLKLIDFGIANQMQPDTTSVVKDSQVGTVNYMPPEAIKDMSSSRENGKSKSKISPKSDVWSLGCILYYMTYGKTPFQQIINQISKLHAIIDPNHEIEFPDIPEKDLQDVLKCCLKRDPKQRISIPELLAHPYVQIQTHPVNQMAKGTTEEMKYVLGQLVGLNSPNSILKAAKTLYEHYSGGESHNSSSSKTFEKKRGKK
Assay: Mps-1 kinase assay (TR-FRET)
Assay type: biochemical
Conditions: GST-tagged human full length recombinant Mps-1; 10 μM ATP; 1 μM peptide substrate; 60 min at 22° C.
How it was run: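 TR-FRET read-out: after 1 h binding at 22° C, Eu-labelled anti-phospho-Ser/Thr antibody transfers to SA-XLent on the phosphorylated biotinylated peptide. The enzyme is GST-tagged full-length human Mps-1, typically about 1 nM final, in the linear range.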

Compound: CC(C)CNc1nc(-c2ccoc2)cn2c(-c3ccc(C(=O)NC4CC4)c(F)c3)cnc12 [Example 1-50, N-cyclopropyl-2-fluoro-4-{6-(furan-3-yl)-8-[(2-methylpropyl)amino]imidazo[1,2-a]pyrazin-3-yl}benzamide]
- IC50: 9.2 nM

Compound: CC(C)CNc1nc(-c2cc3ccccc3o2)cn2c(-c3ccc(C(=O)NC4CC4)cc3)cnc12 [Example 1-11, 4-{6-(1-benzofuran-2-yl)-8-[(2-methylpropyl)amino]imidazo[1,2-a]pyrazin-3-yl}-N-cyclo-propylbenzamide]
- IC50: 78.8 nM

Compound: Cc1cc(-c2cnc3c(NCCC(F)(F)F)nc(-c4cnn(C)c4)cn23)ccc1C(=O)NC1CC1 [Example 1-69, N-cyclopropyl-2-methyl-4-{6-(1-methyl-1H-pyrazol-4-yl)-8-[(3,3,3-trifluoropropyl)amino]imidazo[1,2-a]pyrazin-3-yl}benzamide]
- IC50: 3.8 nM

Compound: Cc1ccc(-c2cn3c(-c4ccc(C(=O)NC5CC5)cc4)cnc3c(NCC(C)(C)O)n2)cc1CC(N)=O [Example 1-99, 4-{6-[3-(2-Amino-2-oxo-ethyl)-4-methylphenyl]-8-[(2-hydroxy-2-methylpropyl)amino]imidazo[1,2-a]pyrazin-3-yl}-N-cyclopropylbenzamide]
- IC50: 16.1 nM

Compound: CCCNc1nc(-c2ccncc2)cn2c(-c3ccc(C(=O)NC4CC4)cc3)cnc12 [Example 3-3, N-cyclopropyl-4-[8-(propylamino)-6-(pyridin-4-yl)imidazo[1,2-a]pyrazin-3-yl]benzamide]
- IC50: 2.1 nM

Compound: Cc1cc(-c2cnc3c(NCC4CCN(C)C4)nc(C4=CCOCC4)cn23)ccc1C(=O)NC1CC1 (stereo not shown) [Example 6-9, N-cyclopropyl-4-[6-(3,6-dihydro-2H-pyran-4-yl)-8-{[(1-methyl-pyrrolidin-3-yl)methyl]amino}imidazo[1,2-a]pyrazin-3-yl]-2-methylbenzamide]
- IC50: 77.6 nM

Compound: O=C(NC1CC1)c1ccc(-c2cnc3c(NCCCOCC4COCO4)nc(-c4ccccc4)cn23)cc1 (stereo not shown) [Example 3-42, N-cyclopropyl-4-(8-{[3-(1,3-dioxolan-4-ylmethoxy)propyl]amino}-6-phenylimidazo[1,2-a]pyrazln-3-yl)benzamide]
- IC50: 5.1 nM

Compound: O=C(NC1CC1)c1ccc(-c2cnc3c(NCCOCCOCCO)nc(-c4ccccc4)cn23)cc1 [Example 3-43, N-cyclopropyl-4-[8-({2-[2-(2-hydroxyethoxy)ethoxy]ethyl}amino)-6-phenylimidazo[1,2-a]pyrazin-3-yl]benzamide]
- IC50: 17.8 nM

Compound: O=C(NC1CC1)c1ccc(-c2cnc3c(NCc4c(F)cccc4F)nc(-c4ccncc4)cn23)cc1 [Example 3-15, N-cyclopropyl-4-{8-[(2,6-difluorobenzyl)amino]-6-(pyridin-4-yl)imidazo [1,2-a]pyrazin-3-yl} benzamide]
- IC50: 2.7 nM

Compound: Cc1cc(-c2cnc3c(NCCC(F)(F)F)nc(-c4c(C)noc4C)cn23)ccc1C(=O)NC1CC1 [Example 1-74, N-cyclopropyl-4-{6-(3,5-dimethyl-1,2-oxazol-4-yl)-8-[(3,3,3-trifluoro-propyl)amino]imidazo [1,2-a]pyrazin-3-yl}-2-methylbenzamide]
- IC50: 4.1 nM
